Data as given in PubChem BioAssay AID602483 (Southern Research Specialized Biocontainment Screening …, 2012).
The source made the active and inactive calls. No rule for the calls is given here.

Columns and labels:
[1] = HEp-2 cell cytotoxicity, dose response, cytotoxicity control, set 1 (AID 602483); settings: HEp-2 cell viability, cytotoxicity; at 50 µM (top of the series)
[2] = tested on: HEp-2 cell viability, cytotoxicity; assay: as above

| SMILES | viability [1] | CC50 [2] |
| --- | --- | --- |
| CN1CCN(Cc2nc3ccc([N+](=O)[O-])cc3c(=O)n2-c2ccccc2F)CC1 | 70.1% (inactive) | – |
| CN(C(=O)Cc1cccs1)c1nc2c(s1)CCCC2 | – | 5.67 µM |
| CCN1CCN(Cc2nc3ccc([N+](=O)[O-])cc3c(=O)n2-c2ccccc2F)CC1 | 72.6% (inactive) | – |
